Measurements: patent publication US20250304571A1, “BIOLOGICALLY ACTIVE COMPOUNDS AND METHODS THEREOF” (Suzhou Keen Therapeutics Co., Ltd., priority 2022, published 2025)
pIC50: −log10 of the molar value. Like-named read-outs stand apart in the source and are kept apart here.

Legend:
Assay type in all cases: cell-based
786-O cells = assay: Anti-proliferation activity in 786-O cells in the presence of a ferroptosis inhibitor (Ferrostatin-1 or Liproxstatin-1); conditions: Homo sapiens, 786-0, 72 h, no ferroptosis inhibitor, read-out: IC50, No Ferroptosis Inhibitor (Table 5)
Description: In one assessment, cells (KP4, 786-0 and HT-1080) were seeded (700 cells/well, 1000 cells/well or 3000 cells/well) in 384-well or 96-well plates and incubated at 37° C./5% CO2 for 22-24 hours. A series of 8 different concentrations of compound stocks were created by 5-fold serial dilution in DMSO. These compounds were further diluted in culture media and were then added to cells (final concentrations: 100 μM, 20 μM, 4 μM, 0.8 μM, 0.16 μM, […].). After 72 hours of incubation, 30 μL of CellTiter Glo reagent (Promega) was added to each well and luminescence was measured after 10 minutes using SpectraMax M5/M5e (Molecular Devices). Luminescence from cells treated with DMSO alone was set as background and % of inhibition was calculated as follows: […]
Anti-proliferation activity of various compounds was also tested in the presence of an ferroptosis inhibitor, Ferrostatin-1 (2 μM) or Liproxstatin-1 (2 μM). Certain results are provided in Table 4 and Table 5 as examples. “A” indicates an IC50≤100 nM; “B” indicates an IC50 of >100 nM and ≤500 nM; “C” indicates an IC50>500 nM and ≤5 μM; and “D” indicates an IC50>5 μM.

[1] = tested on: 786-O (renal cell carcinoma) cells; assay: Cell viability (CellTiter Glo) assay, inhibition of 786-O cell proliferation; conditions: Homo sapiens, read-out: IC50, inhibition of 786-O cell proliferation
[2] = tested on: KP4 (pancreatic ductal adenocarcinoma) cells; assay: Cell viability (CellTiter Glo) assay, inhibition of KP4 cell proliferation; conditions: Homo sapiens, read-out: IC50, inhibition of KP4 cell proliferation
[3] = 786-0, 786-O cells, 72 hours, CellTiter Glo
[4] = KP-4, KP4 cells, 72 hours, CellTiter Glo

| SMILES | pIC50 [1, 3] | pIC50 [2, 4] | further results |
| --- | --- | --- | --- |
| C[C@@H]1CN(c2ncc(N3C(=O)C4(CCCC4)c4c(N)nc(COC(=N)N5CCC[C@@H]5C(F)(F)F)nc43)cn2)C[C@H](C)O1 [Compound E87, (4′-amino-7′-(2-((2S,6R)-2,6-dimethylmorpholino)pyrimidin-5-yl)-6′-oxo-6′,7′-dihydrospiro[cyclopentane-1,5′-pyrrolo[2,3-d]pyrimidin]-2′-yl)methyl (R)-2-(trifluoromethyl)pyrrolidine-1-carbimidate] | > 7.00 | – | pIC50 (786-O cells): > 7.00 |
| CN(C)C(=N)OCc1nc(Nc2ccc(Oc3ccccc3)cc2)c2cn[nH]c2n1 [Compound D10] | – | 5.30 to 6.30 | – |
| CNc1nc(COC(=N)N2CCC[C@@H]2C(F)(F)F)nc2c1C1(CCCC1)C(=O)N2c1cnc(N2C3CCC2COC3)nc1 [Compound E94] | > 7.00 | – | pIC50 (786-O cells): > 7.00 |
| CN1CCN(C(=N)OCc2nc(N)nc(Nc3ccc(Oc4ccccc4)cc3)n2)CC1=O [Compound F33] | – | 6.30 to 7.00 | – |
| CN(C)C(=N)OCc1nc(N)c2c(n1)N(c1ccc(Oc3ccccc3)cc1)CC2(C)C [Compound E1] | – | – | pIC50 (786-O cells): > 7.00; pIC50 ([1]; 786-0, 72 h): > 7.00 |
| N=C(OCc1nc(Nc2ccc(Oc3ccccc3)cc2)c2cc[nH]c2n1)N1CCCCC1 [Compound D5] | 6.30 to 7.00 | 6.30 to 7.00 | – |
| CCCC[C@H]1Cc2cc(OC)ccc2[C@H](c2ccc(F)cc2)N1C(=O)COC(=N)N1CCN(C)C(=O)C1 [Compound A2] | 5.30 to 6.30 | < 5.30 | – |
| N=C(N)OCc1nc(N)nc(Nc2ccc(Oc3ccccc3)cc2)n1 [Compound F26] | – | – | pIC50 ([2]; KP-4, 72 h): < 5.30 |
| CNc1nc(COC(=N)N2CCC[C@@H]2C(F)(F)F)nc2c1C1(CCCC1)C(=O)N2c1cnc(N2C[C@@H](C)O[C@@H](C)C2)nc1 [Compound E88, (7′-{2-[(2R,6S)-2,6-dimethylmorpholin-4-yl]pyrimidin-5-yl}-4′-(methylamino)-6′-oxo-6′,7′-dihydrospiro[cyclopentane-1,5′-pyrrolo[2,3-d]pyrimidin]-2′-yl)methyl (2R)-2-(trifluoromethyl)pyrrolidine-1-carboximidate] | > 7.00 | – | pIC50 (786-O cells): > 7.00 |
| CC(C)/N=C(/NC(C)C)OCc1nc(N)nc(Nc2ccc(Oc3ccccc3)cc2)n1 [Compound F24] | 6.30 to 7.00 | 5.30 to 6.30 | – |
| CC(C)Oc1ccc(Nc2nc(N)nc(COC(=N)N(C)C)n2)cc1 [Compound F1] | – | 5.30 to 6.30 | – |
| C[C@@H]1CN(C(=N)OCc2nc(N)nc(Nc3ccc(Oc4ccccc4)cc3)n2)C[C@H](C)N1C(=O)OC(C)(C)C [Compound F32] | – | > 7.00 | – |
| N=C(OCc1nc(Nc2ccc(Oc3ccccc3)cc2)c2cc[nH]c2n1)N1CCCC(F)(F)C1 [Compound D8] | 6.30 to 7.00 | 5.30 to 6.30 | – |
| N=C(OCc1nc(Nc2ccc(Oc3ccccc3)cc2)c2cc[nH]c2n1)N1CCOCC1 [Compound D4] | 6.30 to 7.00 | 5.30 to 6.30 | – |
| CN(C)C(=N)OCc1ncc2ccn(-c3ccc(Oc4ccccc4)cc3)c2n1 [Compound D1] | – | 6.30 to 7.00 | – |
| N=C(OCc1nc(N)nc(Nc2ccc(Oc3ccccc3)cc2)n1)N1CCCCC1 [Compound F4, (4-amino-6-((4-phenoxyphenyl)amino)-1,3,5-triazin-2-yl)methyl piperidine-1-carbimidate] | – | > 7.00 | – |
| CN(C)C(=N)OCc1nc(N)cc(Nc2ccc(Oc3ccccc3)cc2)n1 [Compound F36] | – | – | pIC50 ([2]; KP-4, 72 h): 5.30 to 6.30 |
| CN1CCN(C(=N)OCc2nc(Nc3ccc(Oc4ccccc4)cc3)c3cc[nH]c3n2)CC1=O [Compound D7] | 5.30 to 6.30 | 5.30 to 6.30 | – |
| CN(C)C(=N)OCc1nccc(Nc2ccc(Oc3ccccc3)cc2)n1 [Compound F35] | 5.30 to 6.30 | 6.30 to 7.00 | – |
| CCCC[C@H]1Cc2cc(OC)ccc2[C@H](c2ccc(F)cc2)N1C(=O)COC(=N)N(C)C [Compound A1] | – | 6.30 to 7.00 | – |
| CN(C)C(=N)OCc1nc(N)nc(Nc2ccc3ccccc3c2)n1 [Compound F5] | 6.30 to 7.00 | 6.30 to 7.00 | – |
| CN1CCN(C(=N)OCc2nc(N)nc(Nc3ccc(Oc4ccccc4)cc3)n2)CC1 [Compound F7] | 6.30 to 7.00 | 6.30 to 7.00 | – |
| CNc1nc(COC(=N)N2CCC[C@H]2C(F)(F)F)nc2c1C(C)(C)CN2c1ccc(N2CCOCC2)cc1OC [Compound E107] | > 7.00 | – | – |
| CNc1nc(COC(=N)N2CCOCC2C(F)(F)F)nc2c1C(C)(C)C(=O)N2c1cnc(N2C[C@@H](C)O[C@@H](C)C2)nc1 (stereo partly drawn) [Compound E218] | 5.30 to 6.30 | – | – |
| CNc1nc(COC(=N)N2CCOCC2C(F)(F)F)nc2c1C(C)(C)C(=O)N2c1cnc(N2CCC(F)(F)C2)nc1 (stereo not drawn) [Compound E216] | 6.30 to 7.00 | – | – |
| CN(C)C(=N)OCc1nccc(N2CCCCC2c2ccc(Oc3ccccc3)cc2)n1 (stereo not drawn) [Compound F38] | – | < 5.30 | – |

| SMILES | pIC50 [1, 3] | pIC50 [2, 4] | further results |
| --- | --- | --- | --- |
| CC(C)N(CC(F)(F)F)C(=N)OCc1nc(N)c2c(n1)N(c1ccc(N3C[C@@H](C)O[C@@H](C)C3)nc1)C(=O)C2(C)C [Compound E191] | 6.30 to 7.00 | – | – |
| CC(C)N(CC(F)(F)F)C(=N)OCc1ncc2c(n1)N(c1ccc(N3CCOCC3)nc1)CC2(C)C [Compound E129] | 6.30 to 7.00 | – | – |
| N=C(OCc1ncc(C2CCCO2)c(Nc2ccc(Oc3ccccc3)cc2)n1)N1CCCCC1C(F)(F)F (stereo not drawn) [Compound E119] | > 7.00 | – | – |
| CNc1nc(COC(=N)N2CCC[C@@H]2C(F)(F)F)nc2c1C(C)(C)C(=O)N2c1ccc(N2C[C@@H](C)O[C@@H](C)C2)nc1 [Compound E69] | > 7.00 | – | – |
| COc1cc(N2CCOCC2)ccc1N1CC(C)(C)c2c(NCC(F)(F)F)nc(COC(=N)N3CCC[C@@H]3C(F)(F)F)nc21 [Compound E16] | > 7.00 | – | – |
| CNc1nc(COC(=N)N2CC(F)(F)C[C@H]2C)nc2c1C(C)(C)C(=O)N2c1ccc(N2CCOCC2)cc1 [Compound E42] | 6.30 to 7.00 | – | – |
| N=C(OCc1ncc2c(n1)N(c1ccc(Oc3ccccc3)cc1)C(=O)CC2)N1CCC(F)(F)CC1 [Compound C1] | < 5.30 | – | – |
| N=C(OCc1ncc2c(n1)N(c1ccc(N3CCOCC3)cc1)C(=O)C21CCCCC1)N1CCC[C@@H]1C(F)(F)F [Compound E58] | > 7.00 | – | – |
| C[C@@H]1CN(c2ncc(N3C(=O)C4(CCCC4)c4c(N)nc(COC(=N)N5CCOC[C@@H]5C(F)(F)F)nc43)cn2)C[C@H](C)O1 [Compound E104B] | > 7.00 | – | – |
| CC(C)N(CC(F)(F)F)C(=N)OCc1ncc2c(n1)N(c1ccc(OC3CCCCC3)nc1)CC2(C)C [Compound E127] | 6.30 to 7.00 | – | – |
| COc1ccc(CNc2nc(COC(=N)N3CCC(F)(F)CC3)nc3c2C(C)(C)CN3c2ccc(Oc3ccccc3)cc2)cc1 [Compound E6] | 6.30 to 7.00 | – | – |
| CNc1nc(COC(=N)N2CCC[C@@H]2C(F)(F)F)nc2c1C(C)(C)C(=O)N2c1ccc2c(c1)CCCO2 [Compound E185] | > 7.00 | – | – |
| N=C(OCc1nc(NC2CC2)c2c(n1)N(c1ccc(F)c(F)c1)C(=O)C21CCCC1)N1CCC[C@@H]1C(F)(F)F [Compound E205] | > 7.00 | – | – |
| C#CCOc1cccc(Oc2ccc(Nc3nc(N)nc(COC(=N)N(CC)c4ccccn4)n3)cc2)c1 [Compound F47] | > 7.00 | – | – |
| CNc1nc(COC(=N)N2CCC[C@@H]2C(F)(F)F)nc2c1C(C)(C)C(=O)N2c1cc(F)c2c(cnn2C(C)C)c1 [Compound E31] | > 7.00 | – | – |
| N=C(OCc1nc(N)nc(Nc2ccc(Oc3ccccc3)cc2)n1)N1CCS(=O)(=O)CC1 [Compound F27] | – | 6.30 to 7.00 | – |
| CC(C)N(CC(F)(F)F)C(=N)OCc1ncc2c(n1)N(c1ccc(OC3CCCC3)nc1)C(=O)C21CC1 [Compound E132] | 6.30 to 7.00 | – | – |
| Nc1nc(CO/C(=N\C2CCCCC2)NC2CCCCC2)nc(Nc2ccc(Oc3ccccc3)cc2)n1 [Compound F23] | – | – | pIC50 ([1]; 786-0, 72 h): 6.30 to 7.00; pIC50 ([2]; KP-4, 72 h): 5.30 to 6.30 |
| COc1cc(F)ccc1N1CC(C)(C)c2c(NC3CC3)nc(COC(=N)N3CCC[C@@H]3C(F)(F)F)nc21 [Compound E207] | > 7.00 | – | – |
| CC(C)N(CC(F)(F)F)C(=N)OCc1ncc2c(n1)N(c1ccc(N3CCCCC3)cc1)C(=O)C21CC1 [Compound E163] | 6.30 to 7.00 | – | – |
| CC1(C)CN(c2ccc(Oc3ccccc3)cc2)c2nc(COC(=N)N3CCCC34COC4)ncc21 [Compound E11] | 5.30 to 6.30 | – | – |
| CNc1nc(COC(=N)N2CCC[C@@H]2C(F)(F)F)nc2c1C1(CCCC1)C(=O)N2c1cnc(C2CC2)nc1 [Compound E215] | 6.30 to 7.00 | – | – |
| CC(C)Nc1nc(COC(=N)N2CCC[C@@H]2C(F)(F)F)nc2c1C1(CCCC1)C(=O)N2c1cnc(N2CCCCC2)nc1 [Compound E211] | – | – | pIC50 ([1]; 786-0, 72 h): > 7.00 |
| N=C(OCc1ncc2c(n1)N(c1ccc(N3CCOCC3)cc1)C(=O)C21CCCC1)N1CCC[C@@H]1C(F)(F)F [Compound E72] | > 7.00 | – | – |
| CNc1nc(COC(=N)N2CCCCC2C(F)(F)F)nc2c1C(C)(C)C(=O)N2c1ccc(OC2CCCCC2)cc1 (stereo not drawn) [Compound E174] | > 7.00 | – | – |
| CC(C)Nc1nc(COC(=N)N2CCCC2C(F)(F)F)nc2c1C(C)(C)C(=O)N2c1ccc(N2CCOCC2)cc1 (stereo not drawn) [Compound E176, (4-(Isopropylamino)-5,5-dimethyl-7-(4-morpholinophenyl)-6-oxo-6,7-dihydro-5H-pyrrolo[2,3-d]pyrimidin-2-yl)methyl 2-(trifluoromethyl)pyrrolidine-1-carbimidate] | – | – | pIC50 ([1]; 786-0, 72 h): > 7.00 |
